Measured values: patent US11998591B2, “Method of treating diabetes type 2 by administering ultrarapid acting insulin” (MannKind Corporation, priority 2008, dated 2024)
Read-outs that look alike come from different tables or passages of the source.

Tests used:
patients = conditions: gastrointestinal side-effects being a primary issue; cited from earlier work
[1] = cited from earlier work
[2] = tested on: subjects with type 1 diabetes; assay: 52-week clinical trial: basal insulin + prandial TI Inhalation Powder vs basal insulin + SC insulin aspart; format: in vivo, human
Description: A Prospective, Multi-Center, Open-Label, Randomized, Controlled Clinical Trial Comparing the Efficacy and Safety in Subjects with Type 1 Diabetes Receiving SC Basal Insulin and Prandial Inhalation of Insulin-FDKP Versus SC Basal and Prandial Insulin Over a 52-Week Treatment Period and a 4-Week Follow-Up
This was a prospective, multi-country, multicenter, open label, randomized, controlled clinical trial comparing glycemic control in subjects with type 1 diabetes receiving basal insulin and prandial insulin-FDKP (TI) Inhalation Powder (TI Inhalation Powder group) with subjects receiving basal insulin and SC rapid-acting insulin aspart (comparator group). This study included a 52-week treatment phase and a 4-week follow-up phase. During the 4-week follow-up phase, pulmonary function and select clinical laboratory assessments were scheduled.
The study began with enrollment at Week −3. Subjects received a complete battery of safety and eligibility assessments, including HbA1c and fasting plasma glucose (FPG).
At Week −1, subjects were randomized to one of the following 2 treatments: • Basal insulin+prandial TI Inhalation Powder • Basal insulin+prandial SC rapid-acting insulin
At Week −1, subjects again completed the first three components of the Insulin Treatment Questionnaire (ITQ) for the purpose of assessing test-retest reliability only). After completing the questionnaire, subjects randomized to the TI Inhalation Powder group were trained on the MEDTONE® Inhaler using TECHNOSPHERE®/insulin (insulin-FDKP) inhalation powder; subjects in the comparator group were trained in the use of the NOVOLOG® pens; all subjects were trained in administration of LANTUS®. Additionally, all subjects were trained on a blood glucose monitoring (HBGM) meter provided at the beginning of the trial and diary and received diabetes education. Any training was repeated at Week 0, if needed.
At the beginning of the treatment phase, subjects had several titration/dose evaluation visits to adjust insulin therapy. Titration visits occurred once a week for the first 4 weeks. During Weeks 4 through 10, there were three telephone “visits” (at Week 6, Week 8, and Week 10) to titrate dose, if necessary. However, dose titration was allowed throughout the trial.
All subjects completed a 7-point blood glucose profile on any 3 days during the week immediately preceding each visit from Week 0 to Week 52. The 7 time points included samples from before breakfast and 2 hours after breakfast, before the mid-day meal and 2 hours after the mid-day meal, before the evening meal and 2 hours after the evening meal and at bedtime (7 time points a day, over 3 days). These blood glucose (BG) values were recorded in the HBGM diary that was collected at clinic visits. The diaries for Weeks 4 through 10 (during dose titration) which were discussed over the telephone were collected at the next office visits.
A meal challenge test was performed at Week 4 (during dose titration), Week 26, and Week 52. Meal challenge venous blood sampling times were: −30, 0, 30, 60, 90, 105, 120, 180, 240, 300, and 360 minutes. Blood glucose (BG) was also measured using HBGM glucose meters to aid the Investigator in treatment decisions and values were obtained at −30, 0, 60, and 120 minutes during the meal challenge.
Treatments for glycemic control used in the trial were the following: prandial insulin-FDKP (TI) inhalation powder, prandial insulin aspart, and basal insulin glargine. Subjects assigned to the TI Inhalation Powder group (TI Inhalation Powder in combination with basal insulin therapy) received sc basal insulin glargine (LANTUS®) once daily (at bedtime) and inhaled TI Inhalation Powder 3 to 4 times a day, immediately before main meals or a snack as based upon clinical need. Adjustment of the TI Inhalation Powder dose and frequency of use to greater than 3 times a day was at the discretion of the Investigator. […]

[3] = tested on: subjects with type 2 diabetes; format: in vivo, human
Description: The insulin-FDKP formulation is administered to the subjects by oral inhalation using a MEDTONE® dry powder inhaler (MannKind Corp.). Following the completion of the meal challenge, the data was analyzed as per the statistical analysis plan. […] The study was amended (A1) and included 12 subjects (10 were reenrolled from the first meal challenge), and only two treatments, which were 10 U lispro and 60 and 90 U TI. The doses were selected based on the relative bioavailability observed following the first meal challenge (OP), where under an assumption of linear kinetics, 10 U lispro and 60 U TI would result in similar exposure. The 90 U dose group was included to assess the effect of the highest dose group of TI studied in Phase 3 trials. Six of the 12 subjects received 60 U TI and the other 6 subjects received 90 U TI. All 12 subjects received 10 U lispro in a crossover fashion. Methods and results below are described in terms of the Original Protocol (OP), which includes the meal challenge in 18 subjects with three treatments (EXUBERA®, lispro and TI) and Amendment 1 (A1), which includes 12 subjects treated with only TI and lispro. […] The subjects were screened and evaluated before, during and after the experiments and their data analyzed as described below. Subjects were selected based on several key inclusion criteria, including, male and female, having ≥18 and ≤70 years of age with clinical diagnosis of type 2 diabetes mellitus for ≥12 months. The subjects selected for the study also had stable anti-diabetic regimen with insulin for the previous 3 months; HbA1c ≤8.5%; Body Mass Index (BMI) between ≤34 kg/m^2 and ≥25 kg/m^2; urine cotinine ≤100 ng/mL; […] Criteria for exclusion from the study also included unstable diabetes control and/or evidence of serious complications of diabetes (e.g., autonomic neuropathy); serum creatinine >1.8 mg/dL in female subjects and >2.0 mg/dL in male subjects. Other clinically important pulmonary disease was confirmed by documented history or pulmonary function testing. Under OP, the study was planned to be a randomized, open label, 3-way cross-over study. […] At this analysis all patients at least had completed the meal challenge visits and only those data have been used. The screening visit(s) (V1) occurred 1 to 21 days before the first treatment visit (V2) with 7 to 21 days elapsing between treatment-visits (V2, V3, and V4) for the meal challenge test. A minimum of 8 weeks elapsed between V4 and the next treatment visit, (V6). An additional safety visit (V5) was scheduled 1-3 days prior to the first of 3 glucose clamp procedures (V6). The glucose clamp procedure occurred at 3 visits, Visits V6, V7, and V8, with 7 to 21 days elapsing between the visits. […] Each treatment visit during the meal challenge had the subjects hospitalized in the clinical unit the night before initiation of treatment. […] Each subject followed the same randomization order for the glucose-clamp procedures as for the meal challenge tests. During the study, periodic blood draws for determination of pharmacokinetic and/or pharmacodynamic parameters, and safety were taken beginning at 12 hours prior to onset of the treatment regimens and meal challenge, and thereafter for a period of 8 hours. […] Meal Challenge Test: BOOST PLUS® (12 fl. oz.) consisting of 67.5 g carbohydrate, 21 g protein, 21 g fat, energy content 540 kcal was used for the meal challenge test. The BOOST PLUS® was enriched with U-^13C-glucose to determine the amount of absorbed glucose. Concurrent enriched continuous infusion of 6,6-^2H2 glucose was used to assess endogenous glucose production EGP. […] Under OP, the dose for insulin lispro was selected based on information obtained from the regulatory label. The dose selected for EXUBERA® was obtained by means of back calculation of the most commonly used dose information presented to the FDA Advisory Committee in the EXUBERA® Briefing Document. […]

[4] = tested on: subjects with type 2 diabetes; format: in vivo, human; remark: listed apart in the source
Description: Following the completion of the meal challenge, the data was analyzed as per the statistical analysis plan. […] The study was amended (A1) and included 12 subjects (10 were reenrolled from the first meal challenge), and only two treatments, which were 10 U lispro and 60 and 90 U TI. The doses were selected based on the relative bioavailability observed following the first meal challenge (OP), where under an assumption of linear kinetics, 10 U lispro and 60 U TI would result in similar exposure. The 90 U dose group was included to assess the effect of the highest dose group of TI studied in Phase 3 trials. Six of the 12 subjects received 60 U TI and the other 6 subjects received 90 U TI. All 12 subjects received 10 U lispro in a crossover fashion. Methods and results below are described in terms of the Original Protocol (OP), which includes the meal challenge in 18 subjects with three treatments (EXUBERA®, lispro and TI) and Amendment 1 (A1), which includes 12 subjects treated with only TI and lispro. […] The subjects were screened and evaluated before, during and after the experiments and their data analyzed as described below. Subjects were selected based on several key inclusion criteria, including, male and female, having ≥18 and ≤70 years of age with clinical diagnosis of type 2 diabetes mellitus for ≥12 months. The subjects selected for the study also had stable anti-diabetic regimen with insulin for the previous 3 months; HbA1c ≤8.5%; Body Mass Index (BMI) between ≤34 kg/m^2 and ≥25 kg/m^2; urine cotinine ≤100 ng/mL; […] Criteria for exclusion from the study also included unstable diabetes control and/or evidence of serious complications of diabetes (e.g., autonomic neuropathy); serum creatinine >1.8 mg/dL in female subjects and >2.0 mg/dL in male subjects. Other clinically important pulmonary disease was confirmed by documented history or pulmonary function testing. Under A1, the study was planned to be a randomized, open label, 2-way cross-over study. […] Blood glucose concentrations were measured at regular intervals from arterialized venous blood samples. […]

[5] = subjects with type 1 diabetes, prescribing information
[6] = 52 weeks, with basal insulin glargine
[7] = OP: 45 U insulin-FDKP, 12 U SC lispro, 4 mg EXUBERA, FIG. 6

CN(C)C(=N)N=C(N)N [metformin]
Patients who cannot tolerate the drug, at least at dosages adequate for acceptable glycemic control (patients): Approximately 30%

Regular human insulin: regular human insulin preparations for subcutaneous injection, considered short acting
Duration of significant elevation or activity (as long as) ([1]; subcutaneous injection): 10 to 12 h | Time to reach maximal activity ([1]; subcutaneous injection): 2 to 4 h | Time to reach maximal blood insulin concentration ([1]; subcutaneous injection): 1 to 2 h

insulin aspart: SC rapid-acting insulin analog (NOVOLOG®), comparator in Example 2
Median Tmax [1, 5]: 40 to 50 min | Mean decrease in fasting plasma glucose (FPG) from baseline ([2]; 52-week treatment period, with basal insulin glargine): 23.4 (SD 103.1) mg/dL | Mean fasting plasma glucose (FPG) at the end of the treatment period [2, 6]: 161.3 (SD 68.2) mg/dL | Percentage of subjects whose HbA1c level decreased to ≤6.5% [2, 6]: 7.31% | Percentage of subjects whose HbA1c level decreased to ≤7.0% [2, 6]: 15.98% | Percentage of subjects whose HbA1c level decreased to ≤8.0% [2, 6]: 56.16% | HbA1c ([2]; Week 14, with basal insulin glargine): 8.07 (SD 1.09) % | Average body weight gain ([2]; over the 52-week treatment period): 1.4 kg

insulin glulisine: rapid acting insulin analog (APIDRA®)
Range of Tmax ([1]; both type 1 and type 2 populations, prescribing information): 40 to 120 min | Median Tmax [1, 5]: 60 min | Median Tmax ([1]; subjects with type 2 diabetes, prescribing information): 100 min

insulin lispro: rapid acting insulin analog, subcutaneously administered (HUMALOG®, Eli Lilly & Co.)
Time of peak inhibition of endogenous glucose production after treatment ([3]; OP: 45 U insulin-FDKP, 12 U SC lispro, 4 mg EXUBERA, FIG. 5): about 80 minutes | Time after dosing at which glucose disappearance rate peaked [3, 7]: about 120 minutes | Time post dosing at which glucose disappearance rate was substantial / departed from baseline [3, 7]: about 30 minutes | Time post-treatment at which (further) glucose infusion was needed to remain above 90 mg/dL ([3]; OP: 45 U insulin-FDKP, 12 U SC lispro, 4 mg EXUBERA, after the initial phase): ~3 h | Median tmax of insulin concentration ([3]; human, in vivo, sc, 4 mg): 75 min | Total insulin exposure, greater than following either 45 U insulin-FDKP (TI) or 4 mg EXUBERA ([3]; in vivo): approximately 40% | Time of peak inhibition of endogenous glucose production following dosing ([4]; 10 U lispro SC, FIG. 10): about 100 minutes | Time after dosing at which glucose disappearance rate peaked ([4]; 10 U lispro SC, FIG. 11): about 100 minutes | Median tmax of insulin concentration ([4]; human, in vivo, sc): 60 min | Tmax ([1]; prescribing information): 30 to 90 min
